Assay results: US7241785B2, “Five-membered heterocyclic alkanoic acid derivative” (Takeda Pharmaceutical Company Limited, priority 2001, dated 2007)

Legend:
KKA^y mice [1] = assay: Hypoglycemic and hypolipidemic (hypotriglyceridemic) actions in mice; type: in vivo; details: Mus musculus, po, 96 h, 0.01% in powdery diet, four days
Method: Hypoglycemic and Hypolipidemic (Hypotriglyceridemic) Actions in Mice
Test compounds were mixed in a powdery diet (CE-2, Japan Clea) at the concentration of 0.01%, and freely given to KKA^y mice (11 to 12 weeks old, 5 mice per group), a model of type 2 diabetes mellitus, for four days. During this period, water was given freely. Blood was sampled from orbital venous plexus, and glucose and triglyceride levels in plasma separated from the blood were determined enzymatically using L type Wako Glu2 (Wako Pure Chemical Industries, Ltd.) or L type Wako TG.H (Wako Pure Chemical Industries, Ltd.), respectively.
In the Table, “hypoglycemic action (%)” represents a percent reduction (%) of the blood glucose level in the treatment group when the blood glucose level in the non-treatment group is taken as 100%. In addition, “hypolipidemic action (%)” represents a percent reduction (%) of the blood triglyceride level in the treatment group when the blood triglyceride level in the non-treatment group is taken as 100%.

KKA^y mice [2] = assay: Total cholesterol lowering action and plasma anti-arteriosclerosis index-enhancing action in mice; type: in vivo; details: Mus musculus, po, 96 h, 0.01% in powdery diet, four days
Method: Total Cholesterol Lowering Action and Plasma Anti-Arteriosclerosis Index-Enhancing Action in Mice
Test compounds were mixed in a powdery diet (CE-2, Japan Clea concentration of 0.01%, and freely given to KKA^y mice (11 to 12 weeks old, 5 mice per group), a model of type 2 diabetes mellitus, for four days. During this period, water was given freely. Blood was sampled from orbital venous plexus, and components in plasma separated from the blood were determined. Total cholesterol levels were determined using L type Wako Cholesterol (Wako Pure Chemical Industries, Ltd.). Precipitation reagent for HDL cholesterol was added to a part of the plasma to precipitate non-HDL lipoprotein, and cholesterol (HDL cholesterol) in the resulting supernatant was determined. The plasma anti-arteriosclerosis index [(HDL cholesterol/total cholesterol)×100] was calculated using these cholesterol levels.
In the Table, “total cholesterol lowering action (%)” represents a percent reduction (%) of the total cholesterol level in the treatment group when the total cholesterol level in the non-treatment group is taken as 100%. In addition, “plasma anti-arteriosclerosis index-enhancing action (%)” represents a percent increase (%) of the plasma anti-arteriosclerosis index in the treatment group when the plasma anti-arteriosclerosis index in the non-treatment group is taken as 100%.

[3] = percent reduction of blood glucose level vs non-treatment group (100%), read-out: Hypoglycemic action (%)
[4] = percent reduction of blood triglyceride level vs non-treatment group (100%), read-out: Hypolipidemic action (%)

Row | Compound | melting point | further results
1 | Cc1oc(-c2ccccc2)nc1COc1ccc(CN(C)c2nc(-c3ccccc3)c(CCC(=O)O)s2)cc1.Cl | 106 to 108 °C | –
2 | Cc1oc(-c2ccccc2)nc1COc1ccc(CSc2nc(CCC(=O)O)n[nH]2)cc1 [Example 18, 3-[5-[4-(5-methyl-2-phenyl-4-oxazolylmethoxy)benzylthio]-1H-1,2,4-triazol-3-yl]propionic acid] | 170 to 171 °C | –
3 | Cc1oc(-c2ccccc2)nc1COc1ccc(Sc2nc(CC(=O)O)cs2)cc1 [Example 19, [2-[4-(5-methyl-2-phenyl-4-oxazolylmethoxy)phenylthio]-4-thiazolyl]acetic acid] | 180 to 181 °C | –
4 | Cc1oc(-c2ccccc2)nc1COc1ccc(COc2nn(Cc3ccccc3)cc2CCC(=O)O)cc1 [Example 20, 3-[1-benzyl-3-[-4-(5-methyl-2-phenyl-4-oxazolylmethoxy)benzyloxy]-1H-pyrazol-4-yl]propionic acid] | 125 to 126 °C | –
5 | Cc1oc(-c2ccccc2)nc1CCOc1ccc(COc2nn(C)cc2CC(=O)O)cc1 [Example 22, [1-methyl-3-[4-[2-(5-methyl-2-phenyl-4-oxazolyl)ethoxy]benzyloxy]-1H-pyrazol-4-yl]acetic acid] | 148 to 149 °C | –
6 | Cc1oc(-c2ccccc2)nc1COc1ccc(COc2nn(C)cc2CC(=O)O)cc1 [Example 24, [1-methyl-3-[4-(5-methyl-2-phenyl-4-oxazolylmethoxy)benzyloxy]-1H-pyrazol-4-yl]acetic acid] | 133 to 134 °C | inhibition in vivo at 0.01 % in diet (KKA^y mice [1]; [3]): 50%; inhibition in vivo at 0.01 % in diet (KKA^y mice [1]; [4]): 22%
7 | Cc1oc(-c2ccccc2)nc1COc1cc(COc2nn(C)cc2CC(=O)O)ccn1 [Example 28, [1-methyl-3-[2-(5-methyl-2-phenyl-4-oxazolylmethoxy)-4-pyridylmethoxy]-1H-pyrazol-4-yl]acetic acid] | 126 to 127 °C | –
8 | Cc1oc(-c2ccccc2)nc1COc1cc(COc2nn(C)cc2CC(=O)O)on1 [Example 30, [1-methyl-3-[3-(5-methyl-2-phenyl-4-oxazolylmethoxy)-5-isoxazolylmethoxy]-1H-pyrazol-4-yl]acetic acid] | 149 to 150 °C | –
9 | Cn1cc(CC(=O)O)c(OCc2cc(OCc3ccc4ccccc4n3)no2)n1 [Example 32, [1-methyl-3-[3-(2-quinolylmethoxy)-5-isoxazolylmethoxy]-1H-pyrazol-4-yl]acetic acid] | 124 to 125 °C | –
10 | Cn1cc(CC(=O)O)c(OCc2ccc(OCc3csc(-c4ccccc4)n3)nc2)n1 [Example 34, [1-methyl-3-[6-(2-phenyl-4-thiazolylmethoxy)-3-pyridylmethoxy]-1H-pyrazol-4-yl]acetic acid] | 156 to 157 °C | –
11 | Cc1sc(-c2ccccc2)nc1COc1ccc(COc2nn(C)cc2CC(=O)O)cn1 [Example 36, [1-methyl-3-[6-(5-methyl-2-phenyl-4-thiazolylmethoxy)-3-pyridylmethoxy]-1H-pyrazol-4-yl]acetic acid] | 140 to 141 °C | –
12 | Cc1oc(-c2ccco2)nc1COc1ccc(COc2nn(C)cc2CC(=O)O)cn1 [Example 38, [3-[6-[2-(2-furyl)-5-methyl-4-oxazolylmethoxy]-3-pyridylmethoxy]-1-methyl-1H-pyrazol-4-yl]acetic acid] | 155 to 156 °C | change in vivo at 0.01 % in diet (KKA^y mice [2]; percent increase of index [(HDL cholesterol/total cholesterol)×100] vs non-treatment group (100%)): 12%; inhibition in vivo at 0.01 % in diet (KKA^y mice [2]; percent reduction of total cholesterol level vs non-treatment group (100%)): 12%; inhibition in vivo at 0.01 % in diet (KKA^y mice [1]; [3]): 47%; inhibition in vivo at 0.01 % in diet (KKA^y mice [1]; [4]): 36%
13 | COc1cc(COc2nn(C)cc2CC(=O)O)ccc1OCc1nc(-c2ccccc2)oc1C [Example 42, [3-[3-methoxy-4-(5-methyl-2-phenyl-4-oxazolylmethoxy)benzyloxy]-1-methyl-1H-pyrazol-4-yl]acetic acid] | 153 to 154 °C | –
14 | Cc1oc(-c2ccccc2)nc1COc1ccc(COc2nn(Cc3ccccc3)cc2CC(=O)O)cc1 [Example 44, [1-benzyl-3-[4-(5-methyl-2-phenyl-4-oxazolylmethoxy)benzyloxy]-1H-pyrazol-4-yl]acetic acid] | 91 to 92 °C | inhibition in vivo at 0.01 % in diet (KKA^y mice [1]; [3]): 53%; inhibition in vivo at 0.01 % in diet (KKA^y mice [1]; [4]): 68%
15 | COc1cc(COc2nn(Cc3ccccc3)cc2CC(=O)O)ccc1OCc1nc(-c2ccccc2)oc1C [Example 46, [1-benzyl-3-[3-methoxy-4-(5-methyl-2-phenyl-4-oxazolylmethoxy)benzyloxy]-1H-pyrazol-4-yl]acetic acid] | 99 to 100 °C | inhibition in vivo at 0.01 % in diet (KKA^y mice [1]; [3]): 54%; inhibition in vivo at 0.01 % in diet (KKA^y mice [1]; [4]): 56%
16 | Cc1oc(-c2ccccc2)nc1COc1ccc(COc2nn(Cc3ccccc3)cc2CCC(=O)O)cn1 [Example 48, 3-[1-benzyl-3-[6-(5-methyl-2-phenyl-4-oxazolylmethoxy)-3-pyridylmethoxy]-1H-pyrazol-4-yl]propionic acid] | 130 to 131 °C | –
17 | COC(=O)Cc1cn(-c2ccccc2)nc1OCc1ccc(OCc2nc(-c3ccccc3)oc2C)c(OC)c1 [Example 51, methyl [3-[3-methoxy-4-(5-methyl-2-phenyl-4-oxazolylmethoxy)benzyloxy]-1-phenyl-1H-pyrazol-4-yl]acetate] | 107 to 108 °C | –
18 | COC(=O)Cc1cn(-c2ccccc2)nc1OCc1ccc(OCc2nc(-c3ccccc3)oc2C)nc1 [Example 53, methyl [3-[6-(5-methyl-2-phenyl-4-oxazolylmethoxy)-3-pyridylmethoxy]-1-phenyl-1H-pyrazol-4-yl]acetate] | 96 to 97 °C | –
19 | COc1cc(COc2nn(-c3ccccc3)cc2CCC(=O)O)ccc1OCc1nc(-c2ccco2)oc1C [Example 56, 3-[3-[4-[2-(2-furyl)-5-methyl-4-oxazolylmethoxy]-3-methoxybenzyloxy]-1-phenyl-1H-pyrazol-4-yl]propionic acid] | 161 to 162 °C | –
20 | Cc1oc(-c2ccccc2)nc1COc1ccc(CCc2oc(-c3ccccc3)nc2CCC(=O)O)cc1 [Example 65, 3-[5-[2-[4-(5-methyl-2-phenyl-4-oxazolyl)methoxyphenyl]ethyl]-2-phenyl-4-oxazolyl]propionic acid] | 110 to 111 °C | –
21 | Cc1oc(-c2ccco2)nc1COc1ccc(Cc2nc(CCC(=O)O)c(-c3ccccc3)o2)cc1 [Example 67, 3-[2-[4-[2-(2-furyl)-5-methyl-4-oxazolylmethoxy]benzyl]-5-phenyl-4-oxazolyl]propionic acid] | 154 to 155 °C | –
22 | Cc1oc(-c2ccco2)nc1COc1ccc(Cc2nc(-c3ccccc3)c(CCC(=O)O)o2)cc1 [Example 69, 3-[2-[4-[2-(2-furyl)-5-methyl-4-oxazolylmethoxy]benzyl]-4-phenyl-5-oxazolyl]propionic acid] | 74 to 76 °C | –
23 | COc1cc(COc2nn(-c3ccccc3)cc2CC(=O)O)ccc1OCc1nc(-c2ccco2)oc1C [Example 73, [3-[4-[2-(2-furyl)-5-methyl-4-oxazolylmethoxy]-3-methoxybenzyloxy]-1-phenyl-1H-pyrazol-4-yl]acetic acid] | 179 to 180 °C | –
24 | COc1cc(COc2nn(-c3ccccc3)cc2CC(=O)N2CCOCC2)ccc1OCc1nc(-c2ccco2)oc1C [Example 74, 4-[3-[4-[2-(2-furyl)-5-methyl1–4-oxazolylmethoxy]-3-methoxybenzyloxy]-1-phenyl-1H-pyrazol-4-yl]acetylmorpholine] | 132 to 133 °C | –
25 | COc1cc(COc2cc(CC(=O)O)n(-c3ccccc3)n2)ccc1OCc1nc(-c2ccco2)oc1C [Example 77, [3-[4-[2-(2-furyl)-5-methyl-4-oxazolylmethoxy]-3-methoxybenzyloxy]-1-phenyl-1H-pyrazol-5-yl]acetic acid] | 145 to 146 °C (dec.) | –
26 | COc1cc(COc2cc(CCC(=O)O)n(-c3ccccc3)n2)ccc1OCc1nc(-c2ccccc2)oc1C [Example 79, 3-[3-[3-methoxy-4-(5-methyl-2-phenyl-4-oxazolylmethoxy)benzyloxy]-1-phenyl-1H-pyrazol-5-yl]propionic acid] | 157 to 158 °C | –
27 | Cc1oc(-c2ccccc2)nc1COc1ccc(COc2cc(CCC(=O)O)n(-c3ccccc3)n2)cc1 [Example 81, 3-[3-[4-(5-methyl-2-phenyl-4-oxazolylmethoxy)benzyloxy]-1-phenyl-1H-pyrazol-5-yl]propionic acid] | 154 to 155 °C | –
28 | Cc1oc(-c2ccccc2)nc1COc1cccc(COc2cc(CCC(=O)O)n(-c3ccccc3)n2)c1 [Example 83, 3-[3-[3-(5-methyl-2-phenyl-4-oxazolylmethoxy)benzyloxy]-1-phenyl-1H-pyrazol-5-yl]propionic acid] | 137 to 138 °C | –
